This note sets out measurements from patent US4118561A, “7-(Substituted)-7H-pyrrolo[3,2-f]quinazoline-1,3-diamines” (priority 1977, dated 1978).

Each structure is given as a SMILES string. In brackets after ≈: the same amount, converted by molar mass. Read-outs that look alike come from different tables or passages of the source.

Data set [1] relates to P. vulgaris 6896. Kind of data set: In vitro antibacterial activity (MIC), P. vulgaris 6896. The following applies: Proteus vulgaris, 6896, 18 h.
In data set [2] the test system is S. aureus Smith. Kind of data set: In vitro antibacterial activity (MIC), S. aureus Smith. The following applies: Staphylococcus aureus, 18 h.
Data set [3] is described as follows: Antimalarial blood schizonticidal test in mice. The format is in vivo, Plasmodium berghei (infected ICR/HA Swiss mice). On the set-up: ΔMST (increase in mean survival time): unit: days. To be noted: mouse, in vivo, sc, single dose, read-out: Highest Non-Lethal Dose. The source says: (§1) In addition, the invention provides compounds which have antimalarial activity in vivo as evidenced by a standard blood schizonticidal test in mice infected with Plasmodium berghei KBG 173.
(§2) Utilizing young ICR/HA Swiss mice and a standard inoculum of Plasmodium berghei KBG 173, it is possible to produce a uniform disease fatal to 100% of untreated animals within 6 to 8 days with a mean survival time of 6.2 days. Test animals weigh from 18 to 22 grams but weight variations in any given experimental or control group are confined to 2-3 grams. All animals in any given test are approximately of the same age. Animals on test are housed in metal-topped plastic cages, given a standard laboratory diet and water ad libitum.
(§3) Test animals receive an intraperitoneal injection of 0.5 ml. of 1:100 dilution of heparinized heart's blood with a minimum of 90% parasitized cells (4 × 10^7 cells), drawn from donor mice infected one week earlier with Plasmodium berghei. The donor strain is maintained by weekly passages in separate groups of mice inoculated with a 0.5 ml. of 1:500 dilution of heparinized heart's blood.
(§4) Test compounds are administered after dissolution or suspension in peanut oil. A single dose is given subcutaneously 72 hours after the mice are infected with Plasmodium berghei. At this time a 10-15 percent parasitemia has developed; the disease is well established but has not produced sufficient debility to alter the response of the host to toxic effects of the drug on test. Since treatment is withheld for three days to permit the infection to become well established and death occurs in untreated controls within 6-8 days, it is felt that this system presents a candidate compound with the maximum challenge. In order to check factors such as changes in the infectivity of Plasmodium berghei or in the susceptibility of the host or to detect technical errors, a group of infected animals treated with pyrimethamine at dose levels producing definite increases in survival time is included in a positive control in every experiment.
(§5) In each experiment test compounds are administered in graded dosages. […] However, if an active drug is toxic for the host, its toxicity may become a limiting factor; continued increases in dose levels also increase the toxic effects and may result in the diminution of survival times. Deaths prior to the sixth day, when untreated controls begin to die, are regarded as nonparasitic and become the basis for toxicity evaluations. […] In calculating mean survival time, toxic deaths and 60-day survivors are not included.
(§6) Compounds are considered active which produce a cure in at least one test animal or which produce significant increases in mean survival times of the treated animals as compared with the mean survival times of untreated controls, provided that no drug related deaths (toxicity) are noted at the active dose.

For data set [4], the system named is Plasmodium berghei KBG 173. Kind of data set: Antimalarial blood schizonticidal test in mice. The format is in vivo, Plasmodium berghei (infected ICR/HA Swiss mice). On the set-up: ΔMST (increase in mean survival time): unit: days. The following applies: s.c.; for ED100 / minimal effective dose: Plasmodium berghei, sc, 1440 h, single dose; for ED100 / minimal effective dose / Cure/Treat at Min. Curing Dose: 60-day survivors; for ED100: read-out: Lowest Dose Curing All Mice; for minimal effective dose: read-out: Min. Curing Dose; for Cure/Treat at Min. Curing Dose: at the Min. Curing Dose.
Source text: as §1, §2, §3, §4, §5, §6

The subject of data set [5] is N. catarrhalis 8193. As to the kind of experiment: In vitro antibacterial activity (MIC), N. catarrhalis 8193. The following applies: 18 h.
Data set [6] deals with K. pneumoniae 10031. Kind of data set: In vitro antibacterial activity (MIC), K. pneumoniae 10031. To be noted: Klebsiella pneumoniae, 10031, 18 h.
Data set [7] relates to S. aureus 53-180. As to the kind of experiment: In vitro antibacterial activity (MIC), S. aureus 53-180. To be noted: Staphylococcus aureus, 53180, 18 h.
The test system of data set [8] is E. coli 9637. As to the kind of experiment: In vitro antibacterial activity (MIC), E. coli 9637. The following applies: Escherichia coli, 9637, 18 h.
Data set [9] concerns S. paratyphi 11737. Kind of data set: In vitro antibacterial activity (MIC), S. paratyphi 11737. In kind it is cell-based. The following applies: Salmonella enterica, 18 h.
Setting [10] is: infected mice, highest dose with no deaths for any reason.

By MIC is commonly meant the smallest concentration in the dilution series that meets the test's criterion for growth inhibition. Consider `Nc1nc(N)c2c(ccc3c2ccn3Cc2ccccc2F)n1` [Example 3], for which the MIC was found to be 0.976 µg/mL (≈ 3.18 µM) in data set [1]; 0.488 µg/mL (≈ 1.59 µM) in data set [2]; 0.0152 µg/mL (≈ 0.0495 µM) in data set [5]; 0.122 µg/mL (≈ 0.397 µM) in [6]; 0.244 µg/mL (≈ 0.794 µM) in data set [7]; 0.488 µg/mL (≈ 1.59 µM) in data set [8]. In data set [9], this compound displayed an MIC of 0.976 µg/mL (≈ 3.18 µM). The MTD in [3] (setting [10]) came to 80 mg/kg. In [4], the ED100 amounted to 80 mg/kg. Moreover, the minimal effective dose in data set [4] was found to be 10 mg/kg. The “Cure/Treat at Min. Curing Dose” value in data set [4] was 3/5. Also, in data set [4] (dose 5 mg. per kg.), the “ΔMST (increase in mean survival time)” value is given as 9.8.
For `COc1ccccc1Cn1ccc2c3c(N)nc(N)nc3ccc21` [Example 32], the MIC is 3.9 µg/mL (≈ 12.2 µM) in [1]; 0.976 µg/mL (≈ 3.06 µM) in data set [2]; 0.061 µg/mL (≈ 0.191 µM) in data set [5]; 0.244 µg/mL (≈ 0.764 µM) in data set [6]; 0.976 µg/mL (≈ 3.06 µM) in data set [7]; 1.95 µg/mL (≈ 6.11 µM) in data set [8]. Besides, in [9], inhibition of growth (MIC) required 7.81 µg/mL (≈ 24.5 µM). Moreover, in data set [3] (setting [10]), the MTD was 160 mg/kg. Also, in data set [4], the ED100 is 40 mg/kg. Besides, the minimal effective dose in data set [4] was 10 mg/kg. Moreover, the “Cure/Treat at Min. Curing Dose” value in [4] is reported as 3/5. The “ΔMST (increase in mean survival time)” value in data set [4] (dose 10 mg. per kg.) is given as 10.5.
For `Nc1nc(N)c2c(ccc3c2ccn3Cc2ccccc2Cl)n1` [Example 6], the MIC in [1] is 7.81 µg/mL (≈ 24.1 µM); in data set [2], 0.976 µg/mL (≈ 3.01 µM); in data set [5] it was 0.061 µg/mL (≈ 0.188 µM); in data set [6] it was 0.976 µg/mL (≈ 3.01 µM); in data set [7], 0.976 µg/mL (≈ 3.01 µM); in data set [8] it was 0.976 µg/mL (≈ 3.01 µM). In data set [9], this compound gave an MIC of 1.95 µg/mL (≈ 6.02 µM). For the same compound, the MTD in data set [3] (setting [10]) worked out at 160 mg/kg. The ED100 in [4] was 20 mg/kg. Further, in data set [4], the minimal effective dose worked out at 20 mg/kg. Further, the “Cure/Treat at Min. Curing Dose” value in data set [4] is recorded as 5/5. The “ΔMST (increase in mean survival time)” value in data set [4] (dose 5 mg. per kg.) is 8.3.
For `CCCCCCCn1ccc2c3c(N)nc(N)nc3ccc21` [Example 53], the MIC in data set [1] is 250 µg/mL (≈ 841 µM); in [2], 31.3 µg/mL (≈ 105 µM); in [5], 0.488 µg/mL (≈ 1.64 µM); in data set [6], 3.9 µg/mL (≈ 13.1 µM); in [7], 15.6 µg/mL (≈ 52.5 µM); in data set [8], 31.3 µg/mL (≈ 105 µM). Also, in data set [9], 62.5 µg/mL (≈ 210 µM) was the least that counted as inhibitory (MIC). Moreover, in [3] (this is the highest dose tested), the MTD was 640 mg/kg. Also, the ED100 in data set [4] worked out at 640 mg/kg. Also, in data set [4], the minimal effective dose was determined as 320 mg/kg. The “Cure/Treat at Min. Curing Dose” value in [4] is recorded as 2/5. Moreover, the “ΔMST (increase in mean survival time)” value in data set [4] (dose 160 mg. per kg.) is given as 9.5.
On to `Cc1cc(-n2ccc3c4c(N)nc(N)nc4ccc32)ccc1[N+](=O)[O-]` [Example 80], for which the MIC in [1] is more than 250 µg/mL; in [2], 62.5 µg/mL (≈ 187 µM); in [5], 0.0152 µg/mL (≈ 0.0455 µM); in [6], 0.976 µg/mL (≈ 2.92 µM); in [7], 7.81 µg/mL (≈ 23.4 µM); in data set [8], more than 250 µg/mL. For the same compound, in [9], the MIC is more than 250 µg/mL. Besides, the MTD in data set [3] (setting [10]) is 640 mg/kg. For the same compound, the ED100 in [4] stood at 640 mg/kg. Moreover, the minimal effective dose in [4] amounted to 640 mg/kg. Besides, the “Cure/Treat at Min. Curing Dose” value in data set [4] was 5/5. Besides, in [4] (dose 160 mg. per kg.), the “ΔMST (increase in mean survival time)” value was determined as 13.9.
Regarding `CC(=O)c1ccc(Cn2ccc3c4c(N)nc(N)nc4ccc32)cc1` [Example 61, 7-[(4-Acetylphenyl)methyl]-7H-pyrrolo[3,2-f]-quinazoline-1,3-diamine], the MIC in data set [1] was found to be 1.95 µg/mL (≈ 5.88 µM); in data set [2] it was 0.244 µg/mL (≈ 0.736 µM); in data set [5], 0.0076 µg/mL (≈ 0.0229 µM); in [6], 0.061 µg/mL (≈ 0.184 µM); in data set [7], 0.122 µg/mL (≈ 0.368 µM); in [8], 0.488 µg/mL (≈ 1.47 µM). The MIC in data set [9] was 0.976 µg/mL (≈ 2.95 µM). Further, in data set [3] (setting [10]), the MTD was found to be 40 mg/kg. Moreover, the ED100 in data set [4] turned out to be 20 mg/kg. In addition, the minimal effective dose in data set [4] was 2.5 mg/kg. In addition, in [4], the “Cure/Treat at Min. Curing Dose” value is listed as 4/5. In addition, the “ΔMST (increase in mean survival time)” value in data set [4] (dose 5 mg. per kg.) turned out to be 12.0.
